IC50 data for eleven compounds are collected here from US8067586B2, “Fused heteroaryl derivatives” (Astellas Pharma Inc., priority 2000, dated 2011).

Where two headings read alike, the source gives them in different places. Bounds are passed on as bounds.

One experiment deals with bovine p110α (Bos taurus, UniProt P32871). Kind of experiment: Inhibition of PI3K (p110α subtype). It counts as biochemical.
Another experiment deals with A375 cells. Kind of experiment: Melanoma cell growth inhibition (Alamar Blue). Format: cell-based. As to conditions: Homo sapiens, A-375, incubation for over 46 hours. The protocol:
A375 cells from a melanoma cell line were cultured in DMEM medium (GIBCO) supplemented with 10% fetal bovine serum. A375 cells at 10,000 cells/100 μl were added to a 96 well plate which contained 1 μl/well of the test compounds (final concentration of 0.001˜30 μM). After incubation for over 46 hours, Alamar Blue reagent was added to the medium (10 μl/well).
On the technique in general: The colour change of resazurin is a common sign of viable cells or microbes.

bovine p110α, sequence (P32871 whole entry): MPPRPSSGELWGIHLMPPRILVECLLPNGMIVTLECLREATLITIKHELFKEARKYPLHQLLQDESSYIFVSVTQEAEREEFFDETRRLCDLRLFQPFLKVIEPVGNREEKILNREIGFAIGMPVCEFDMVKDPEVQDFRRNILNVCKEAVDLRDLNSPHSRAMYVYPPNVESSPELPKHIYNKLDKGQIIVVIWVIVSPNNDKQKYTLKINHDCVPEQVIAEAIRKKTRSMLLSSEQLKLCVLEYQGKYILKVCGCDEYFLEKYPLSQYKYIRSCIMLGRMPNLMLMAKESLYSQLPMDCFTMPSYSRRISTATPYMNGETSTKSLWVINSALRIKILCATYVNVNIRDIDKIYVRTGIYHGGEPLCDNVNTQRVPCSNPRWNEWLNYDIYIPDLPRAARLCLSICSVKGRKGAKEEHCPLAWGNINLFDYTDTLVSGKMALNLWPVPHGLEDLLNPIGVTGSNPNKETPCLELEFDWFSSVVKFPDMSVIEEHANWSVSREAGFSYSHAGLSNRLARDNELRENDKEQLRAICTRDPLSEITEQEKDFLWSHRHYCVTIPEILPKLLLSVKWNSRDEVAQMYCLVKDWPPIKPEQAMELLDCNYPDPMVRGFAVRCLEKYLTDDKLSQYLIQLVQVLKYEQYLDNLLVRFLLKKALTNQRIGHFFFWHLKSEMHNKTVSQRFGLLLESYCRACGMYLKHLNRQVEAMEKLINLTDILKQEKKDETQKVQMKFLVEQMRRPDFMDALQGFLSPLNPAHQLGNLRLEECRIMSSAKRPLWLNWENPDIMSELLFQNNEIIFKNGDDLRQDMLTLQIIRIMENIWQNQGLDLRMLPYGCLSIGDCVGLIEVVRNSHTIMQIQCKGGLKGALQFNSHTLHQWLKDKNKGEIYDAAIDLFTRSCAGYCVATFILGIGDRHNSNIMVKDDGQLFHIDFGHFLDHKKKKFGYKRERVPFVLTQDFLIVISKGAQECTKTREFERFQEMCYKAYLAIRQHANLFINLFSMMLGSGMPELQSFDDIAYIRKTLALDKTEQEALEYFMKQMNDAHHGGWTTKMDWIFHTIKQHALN
Method for bovine p110α: Inhibition was determined using enzyme (bovine p110α) prepared in the baculovirus expression system. […] Each compound to be assayed was dissolved in DMSO and the obtained 10 mM DMSO solution was serially diluted with DMSO.
Then, 25 μl of 5 mM Tris-HCl (pH 7.4) buffered solution supplemented with 10 μg PI (Sigma), 2μ Ci [γ-32P] ATP (Amersham Pharmacia) and 80 μM non-radiolabeled ATP (Sigma) was added to the mixture to initiate the reaction. After reacting at 37° C. for 15 minutes, 200 μl of 1M HCl and 400 μl of CHCl3/MeOH (1:1) were added to the reaction mixture. The resulting mixture was stirred and then centrifuged. After the organic layer was again extracted twice with 150 μl of MeOH/1M HCl (1:1). The radioactivity was measured using Cerenkov light.

The term IC50 denotes the concentration that gives 50% inhibition. Take `O=C(Nc1cccc(-c2nc(N3CCOCC3)c3oc4ncccc4c3n2)c1)c1ccccn1` [Co 10]: the IC50 on bovine p110α (bovine p110α, 37° C. for 15 minutes, read-out: IC50, p110α subtype inhibition) is less than 1000 nM.
For the compound `Nc1ccc(C(=O)Nc2cccc(-c3nc(N4CCOCC4)c4oc5ncccc5c4n3)c2)cn1` [Co 17, 6-amino-3′-(4-morpholinopyrido[3′,2′:4,5]furo[3,2-d]pyrimidin-2-yl)nicotinanilide], on bovine p110α, the IC50 was less than 1000 nM.
Compound `Nc1ccc(-c2nc(N3CCOCC3)c3oc4ncccc4c3n2)cc1` [Co 33, 4-(4-morpholinopyrido[3′,2′:4,5]furo[3,2-d]pyrimidin-2-yl)aniline] returned an IC50 with A375 cells of 330 to 4260 nM.
`Oc1cccc(-c2nc(N3CCOCC3)c3oc4ncccc4c3n2)c1` [Co 50, 3-(4-morpholinopyrido[3′,2′:4,5]furo[3,2-d]pyrimidin-2-yl)phenol]: the IC50 with A375 cells was 330 to 4260 nM.
The compound `c1cc(OCCN2CCNCC2)cc(-c2nc(N3CCOCC3)c3oc4ncccc4c3n2)c1` [Co 69, 4-morpholino-2-[3-(2-piperazin-1-ylethoxy)phenyl]pyrido[3′,2′:4,5]furo[3,2-d]pyrimidine] yielded an IC50 in the experiment on A375 cells of 330 to 4260 nM.
Same read-out and setting: next, `Oc1cccc(-c2nc(N3CCOCC3)c3cnccc3n2)c1` [Co 164, 3-(4-morpholinopyrido[4,3-d]pyrimidin-2-yl)phenol]: 330 to 4260 nM; `Oc1cccc(-c2nc(N3CCOCC3)c3ncccc3n2)c1` [Co 172, 3-(4-morpholinopyrido[3,2-d]pyrimidin-2-yl)phenol]: 330 to 4260 nM; `Oc1cccc(-c2nc(N3CCOCC3)c3ccncc3n2)c1` [Co 174, 3-(4-morpholinopyrido[3,4-d]pyrimidin-2-yl)phenol]: 330 to 4260 nM.
Still for that read-out and setting: next, `COc1ccc2nc(-c3cccc(O)c3)nc(N3CCOCC3)c2c1` [Co 186, 3-(6-methoxy-4-morpholinoquinazolin-2-yl)phenol]: 330 to 4260 nM; `Oc1cccc(-c2nc(N3CCOCC3)c3sccc3n2)c1` [Co 190, 3-(4-morpholinothieno[3,2-d]pyrimidin-2-yl)phenol]: 330 to 4260 nM; `Oc1cccc(-c2nc(N3CCOCC3)c3nccnc3n2)c1` [Co 191, 3-(4-morpholinopteridin-2-yl)phenol]: 330 to 4260 nM.
